Reference: US10072014B2 (Janssen Pharmaceutica NV, priority 2014, dated 2018)

Key:
human mGlu2 receptor = target: T1, human mGlu2 receptor (Homo sapiens, UniProt Q14416); assay: [35S]GTPγS binding assay, negative allosteric modulation of mGluR2; assay type: biochemical; conditions: for Emax: maximal % inhibition relative to the control glutamate response (EC80 glutamate), read-out: GTPγS-hmGluR2 anGT Emax; for IC50: membranes from CHO cells transfected with human mGlu2 receptor, glutamate 60 μM (~EC80), read-out: GTPγS-hmGluR2 anGT pIC50 (converted)
T1 construct: expressed in transfected cells; host or cells: CHO cells
T1 sequence (Q14416 19-872): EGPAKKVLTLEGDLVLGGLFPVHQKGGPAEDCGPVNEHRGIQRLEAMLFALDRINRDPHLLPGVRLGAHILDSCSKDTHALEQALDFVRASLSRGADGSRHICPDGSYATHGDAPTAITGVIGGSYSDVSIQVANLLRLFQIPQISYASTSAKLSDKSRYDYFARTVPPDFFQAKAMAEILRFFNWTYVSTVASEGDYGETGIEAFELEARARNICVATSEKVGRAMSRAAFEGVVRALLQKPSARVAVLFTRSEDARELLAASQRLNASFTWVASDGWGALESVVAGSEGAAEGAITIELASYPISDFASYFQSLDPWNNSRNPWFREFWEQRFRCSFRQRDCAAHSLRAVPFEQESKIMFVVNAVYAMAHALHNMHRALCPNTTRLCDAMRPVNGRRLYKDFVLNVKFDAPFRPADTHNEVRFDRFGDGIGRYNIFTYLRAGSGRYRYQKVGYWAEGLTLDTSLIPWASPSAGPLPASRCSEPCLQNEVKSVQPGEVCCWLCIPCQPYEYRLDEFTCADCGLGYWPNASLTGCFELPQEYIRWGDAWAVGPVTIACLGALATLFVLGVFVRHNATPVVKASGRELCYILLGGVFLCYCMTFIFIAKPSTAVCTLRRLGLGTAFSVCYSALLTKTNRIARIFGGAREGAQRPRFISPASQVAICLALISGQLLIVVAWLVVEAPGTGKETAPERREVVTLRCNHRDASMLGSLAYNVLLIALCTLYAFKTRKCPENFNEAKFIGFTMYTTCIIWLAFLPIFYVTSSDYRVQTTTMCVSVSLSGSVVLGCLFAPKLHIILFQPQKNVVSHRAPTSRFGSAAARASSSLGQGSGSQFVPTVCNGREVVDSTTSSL
Description: The compounds provided in the present invention are negative allosteric modulators of mGluR2. These compounds appear to inhibit glutamate responses by binding to an allosteric site other than the glutamate binding site. The response of mGluR2 to a concentration of glutamate is decreased when compounds of Formula (I) are present. Compounds of Formula (I) are expected to have their effect substantially at mGluR2 by virtue of their ability to reduce the function of the receptor. The effects of negative allosteric modulators tested at mGluR2 using the [^35S]GTPγS binding assay method described below and which is suitable for the identification of such compounds, and more particularly the compounds according to Formula (I), are shown in Table 7.
1) [^35S]GTPγS Binding Assay
The [^35S]GTPγS binding assay is a functional membrane-based assay used to study G-protein coupled receptor (GPCR) function whereby incorporation of a non-hydrolysable form of GTP, [^35S]GTPγS (guanosine 5′-triphosphate, labelled with […] ^35S), is measured. The G-protein a subunit catalyzes the exchange of guanosine 5′-diphosphate (GDP) by guanosine triphosphate (GTP) and on activation of the GPCR by an agonist, [^35S]GTPγS, becomes incorporated and cannot be cleaved to continue the exchange cycle (Harper (1998) Current Protocols in Pharmacology 2.6.1-10, John Wiley & Sons, Inc.). […] Here we describe the use of the [^35S]GTPγS binding assay using membranes from cells transfected with the human mGlu2 receptor and adapted from Schaffhauser et al. (Molecular Pharmacology, 2003, […]) for the detection of the negative allosteric modulation (NAM) properties of the compounds of this invention.
CHO-cells were cultured to pre-confluence and stimulated with 5 mM butyrate for 24 h. Cells were then collected by scraping in PBS and cell suspension was centrifuged (10 min at 4000 RPM in benchtop centrifuge). Supernatant was discarded and pellet gently resuspended in 50 mM Tris-HCl, pH 7.4 by mixing with an Ultra Turrax homogenizer. The suspension was centrifuged at 12,400 RPM (Sorvall F14S-6x250Y) for 10 minutes and the supernatant discarded. The pellet was homogenized in 5 mM Tris-HCl, pH 7.4 using an Ultra Turrax homogenizer and centrifuged again (13,000 RPM, 20 min, 4° C.). The final pellet was resuspended in 50 mM Tris-HCl, pH 7.4 and stored at −80° C. in appropriate aliquots before use. Protein concentration was determined by the Bradford method (Bio-Rad, USA) with bovine serum albumin as standard.
[^35S]GTPγS Binding Assay
Measurement of mGluR2 negative allosteric modulatory activity of test compounds was performed as follows. Test compounds and glutamate were diluted in assay buffer containing 10 mM HEPES acid, 10 mM HEPES salt, pH 7.4, 100 mM NaCl, 3 mM MgCl2 and 10 μM GDP. Human mGlu2 receptor-containing membranes were thawed on ice and diluted in assay buffer supplemented with 18 μg/ml saponin. Membranes were pre-incubated with compound together with a predefined (˜EC80) concentration of glutamate (60 μM) for 30 min at 30° C. After addition of [^35S]GTPγS (f.c. 0.1 nM), assay mixtures were shaken briefly and further incubated to allow [^35S]GTPγS incorporation on activation (30 minutes, 30° C.). Final assay mixtures contained 7 μg of membrane protein in 10 mM HEPES acid, 10 mM HEPES salt, pH 7.4, 100 mM NaCl, 3 mM MgCl2, 10 μM GDP and 10 μg/ml saponin. Total reaction volume was 200 μl. Reactions were terminated by rapid filtration through Unifilter-96 GF/B plates (Perkin Elmer, Massachusetts, USA) using a 96-well filtermate universal harvester. Filters were washed 6 times with ice-cold 10 mM NaH2PO4/10 mM Na2HPO4, pH 7.4. Filters were then air-dried, and 30 μl of liquid scintillation cocktail (Microscint-O) was added to each well. Membrane-bound radioactivity was counted in a Topcount.
The concentration-response curves of representative compounds of the present invention were generated using the Lexis software interface (developed at J&J). […]

rats = assay: Reversal of the effect of the mGluR2 PAM JNJ-42153605-induced inhibition of scopolamine-induced hyperlocomotion; assay type: in vivo; conditions: Rattus norvegicus, PO, criterion for reversal: total distance >1500 cm, read-out: ED50 SCOP JNJ-42153605
Protocol: 2) Reversal of the Effect of the mGluR2 PAM JNJ-42153605-induced Inhibition of Scopolamine-induced Hyperlocomotion Apparatus
Motor activity was measured in microprocessor-based motor activity arenas (closed gray PVC cylinders with a height of 39 cm and a diameter of 31 cm). Each arena was placed on an infrared LED (8×8 LEDs) lit box (white PVC squared box; 40×40 cm^2; height 12.5 cm. An infrared-sensitive tube camera and a white light source were mounted to the ceiling above the observation chamber to track the animal. The total distance traveled (cm) was recorded and analyzed using the Noldus Ethovision XT Video Tracking System (Version 7.0.418; Noldus, Wageningen, The Netherlands). The intensity of the light within the activity cages (measured in the centre at the level of the floor) ranged between 4 and 8 LUX.
The rats were pretreated with test compound or vehicle at 60 min before the start of the activity recordings and placed into individual cages. The rats were challenged with JNJ-42153605 (3-(cyclopropylmethyl)-7-(4-phenylpiperidin-1-yl)-8-(trifluoromethyl)-[1,2,4]triazolo[4,3-a]pyridine; WO2010/130424; Cid et al. J. Med. Chem. 2012, 55, 8770-8789) (20 mg/kg, i.v.) 30 min before the start of the activity recording combined with scopolamine (0.16 mg/kg, i.v.) just before the start of the activity measurements. Immediately after the injection of scopolamine, the rats were placed into the activity monitors and total distance traveled over the first 30 min was measured.
Solvent-pretreated Control Rats.
Animals receiving the combination of JNJ-42153605 and scopolamine (n=433) almost always traveled a distance of less than 1500 cm (<1500 cm) (only 2.5% of the control rats traveled a distance of more than 1500 cm (>1500 cm)). On the other hand, animals challenged with scopolamine alone (n=215) always traveled a total distance of more than 1500 cm (>1500 cm) and almost always (in 95.8% of the rats) a distance of more than 4400 cm (>4400 cm). […] For reversal of the inhibitory effect of JNJ-42153605 on the scopolamine-induced hyperlocomotion, the following all-or-none criteria were adopted: (1) reversal: total distance>1500 cm.

Wiga Wistar rats = assay: Reversal of LY-404039-induced decrease of palpebral opening in apomorphine-challenged rats; assay type: in vivo; conditions: Rattus norvegicus, PO, criterion: cumulative palpebral opening score >26, read-out: ED50 APO LY-404039
Protocol: B) In Vivo Pharmacology 1) Reversal of LY-404039-induced Decrease of Palpebral Opening in Apomorphine-challenged Rats.
Male Wiga Wistar rats (Crl:WI; Charles River Germany; 220±40 g) were housed under standard laboratory conditions (21±2° C.; 50-65% relative humidity; light-dark cycle set at 12 h; lights on at 6.00 h) and fasted overnight prior to the start of the experiments (tap water remained available ad libitum). During the test period, they were housed in individual cages. Palpebral opening was scored every 5 min over the first hour after injection of apomorphine (1.0 mg/kg, i.v.) in animals either pretreated or not pretreated with LY-404039 (2.5 mg/kg, s.c.) at 1 h prior to the apomorphine injection. The animals were also pretreated with test compound or solvent at a predefined interval before apomorphine challenge. The score system was: (5) exophthalmos, (4) wide open, (3) open for three-quarters, (2) half open, (1) open for one-quarter, (0) closed. The scores for palpebral opening were cumulated over the 60-min observation period. A cumulative palpebral opening score>26 was selected for drug-induced reversal of the LY-404039-induced decrease of palpebral opening (occurrence in 3.2% of control animals pretreated with LY-404039 (n=154) versus in 99.5% of control rats not pretreated with LY-404039 (n=6335)). […]

Compound | Emax (human mGlu2 receptor) [%] | IC50 (human mGlu2 receptor) [nM] | melting point [°C] | ED50 (rats) [mg/kg] | ED50 (Wiga Wistar rats) [mg/kg]
Cc1nc(-c2cnn3c2C(=O)N(c2ccc(C(F)(F)F)cc2)C[C@@H]3C)c[nH]1 [Compound 4] | 104 | 25.7 | 167.9 | > 2.5 | 
C[C@H]1CN(c2ccc(C(F)(F)F)cc2)C(=O)c2c(-c3c[nH]c(-c4ccc(N)nc4)n3)cnn21 [Compound 11] | 109 | 55 | 276.61 | > 0.63 | 
Cc1[nH]c(-c2ccc(N)nc2)nc1-c1cnn2c1C(=O)N(c1ccc(C(F)(F)F)cc1)C[C@@H]2C [Compound 16] | 108 | 186 | 215.62 | > 0.63 | 
C[C@H]1CN(c2ccc(Cl)c(Cl)c2)C(=O)c2c(-c3c[nH]c(-c4ccccn4)n3)cnn21 [Compound 18] | 110 | 9.12 | 278.31 | > 0.63 | 
Cc1cc(N2C[C@H](C)n3ncc(-c4[nH]c(C5CC5)nc4C)c3C2=O)ccc1C(F)(F)F [Compound 21] | 108 | 5.75 | 146.2 | > 0.63 | 
Cc1cc(N2C[C@H](C)n3ncc(-c4c[nH]c(-c5ccccn5)n4)c3C2=O)ccc1C(F)(F)F [Compound 22] | 110 | 16.2 | 140.5 | > 0.63 | 
C[C@H]1CN(c2ccc(C(F)(F)F)c(Cl)c2)C(=O)c2c(-c3c[nH]c(C4CC4)n3)cnn21 [Compound 25] | 106 | 2 |  | 0.726 | 0.79
CC(C)c1nc(-c2cnn3c2C(=O)N(c2ccc(C(F)(F)F)c(Cl)c2)C[C@@H]3C)c[nH]1 [Compound 26] | 111 | 2.69 | 160.38 | 1.99 | 
Cc1nc(C2CC2)[nH]c1-c1cnn2c1C(=O)N(c1ccc(C(F)(F)F)c(Cl)c1)C[C@@H]2C [Compound 28] | 111 | 3.72 | 158.23 | > 0.63 | 
Cc1nc(C)c(-c2cnn3c2C(=O)N(c2ccc(C(F)(F)F)c(Cl)c2)C[C@@H]3C)[nH]1.Cl [Compound 30] | 109 | 6.31 | 270.45 | 1.99 | 
C[C@H]1CN(c2ccc(C(F)(F)F)c(Cl)c2)C(=O)c2c(-c3c[nH]c(C(N)=O)n3)cnn21 [Compound 31] | 107 | 10.2 | 269.95 | > 0.63 | 
Cc1[nH]c(-c2cccnc2)nc1-c1cnn2c1C(=O)N(c1ccc(C(F)(F)F)c(Cl)c1)C[C@@H]2C [Compound 32] | 109 | 15.5 | 269.39 | > 0.63 | 
C[C@H]1CN(c2ccc(C(F)(F)F)c(Cl)c2)C(=O)c2c(-c3c[nH]c(-c4ccc(N)nc4)n3)cnn21 [Compound 33] | 106 | 16.2 | 286.55 | > 0.63 | 
Cc1[nH]c(-c2ccc(N)nc2)nc1-c1cnn2c1C(=O)N(c1ccc(C(F)(F)F)c(Cl)c1)C[C@@H]2C [Compound 34] | 109 | 30.9 | 280.85 | > 0.63 | 
